The values below come from PubChem BioAssay (NCI).

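Values below derive from 48-hour exposures of cells grown in 96-well plates, with endpoints linearly interpolated between the two concentrations bracketing the appropriate inhibition level. TGI marks complete inhibition of growth.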 Bounds are passed on as bounds.

Among the test systems are ACHN renal; SK-OV-3 ovarian; 786-0 renal; KM12 colon; SF-539 CNS; UACC-257 melanoma; EKVX NSCLC; SK-MEL-28 melanoma; MCF7 breast; HCT-15 colon.
Assay in all cases: growth of human tumour cells (NCI), 48 h

In the case of `O=C(O)C(NCc1ccccc1)C(NCc1ccccc1)C(=O)O` (stereo not given), the TGI in the assay on ACHN renal, in the assay with SK-OV-3 ovarian, with 786-0 renal, in the assay with KM12 colon, with SF-539 CNS and with UACC-257 melanoma was > 100 µM in each case. Also, the TGI with EKVX NSCLC, with SK-MEL-28 melanoma, with MCF7 breast and with HCT-15 colon was > 100 µM in each case.
Consider `CN1CCN(C(=S)N2CCN(C)CC2)CC1`, for which the TGI is > 100 µM with ACHN renal; > 100 µM in the assay on SK-OV-3 ovarian; > 100 µM with 786-0 renal; > 100 µM in the assay with KM12 colon; 45.3 µM in the assay with SF-539 CNS; > 100 µM with UACC-257 melanoma. The TGI with EKVX NSCLC is > 100 µM; in the assay on SK-MEL-28 melanoma, > 100 µM; with MCF7 breast, > 37.3 µM; in the assay with HCT-15 colon, > 100 µM.
Consider `CN(C)CCCC12CCCCC1=Nc1ccccc12` (stereo not given), for which the TGI in the assay with ACHN renal, with SK-OV-3 ovarian, in the assay on 786-0 renal, in the assay on KM12 colon, in the assay on SF-539 CNS and in the assay on UACC-257 melanoma was > 100 µM throughout. Also, the TGI with EKVX NSCLC, in the assay with SK-MEL-28 melanoma, in the assay on MCF7 breast and in the assay on HCT-15 colon was > 100 µM throughout.
On to `Nc1nc(N)c2c3c(cnc2n1)CC(c1ccccc1)CC3` (stereo not given), for which the TGI with ACHN renal is 31.7 µM; in the assay on SK-OV-3 ovarian, 63 µM; in the assay on 786-0 renal, 24.3 µM; in the assay with KM12 colon, > 100 µM; in the assay on SF-539 CNS, > 100 µM; in the assay on UACC-257 melanoma, > 100 µM. In addition, the TGI was > 100 µM in the assay on EKVX NSCLC, > 100 µM in the assay on SK-MEL-28 melanoma, 30.4 µM in the assay on MCF7 breast and > 100 µM in the assay with HCT-15 colon.
As for `NC(=O)C(C(N)=O)=C(O)C(=O)/C=C(\O)c1ccccc1`, the TGI in the assay with ACHN renal, in the assay on SK-OV-3 ovarian, with 786-0 renal, in the assay on KM12 colon, in the assay on SF-539 CNS and in the assay with UACC-257 melanoma was > 100 µM each time. Besides, the TGI with EKVX NSCLC, in the assay on SK-MEL-28 melanoma, in the assay with MCF7 breast and in the assay with HCT-15 colon was > 100 µM throughout.
For `CCC(C)OC(=O)/C(Br)=C1/OC(=O)c2ccccc2-c2ccccc21` (stereo not given), the TGI was > 100 µM with ACHN renal; > 100 µM in the assay on SK-OV-3 ovarian; > 100 µM in the assay with 786-0 renal; 61 µM with KM12 colon; 52.2 µM with SF-539 CNS; > 100 µM in the assay with UACC-257 melanoma. In addition, the TGI in the assay on EKVX NSCLC is > 100 µM; in the assay with SK-MEL-28 melanoma it was 86.7 µM; in the assay on MCF7 breast, > 100 µM; in the assay on HCT-15 colon it was 38.5 µM.
Consider `O=c1c(/C=C/c2c(O)ccc3ccccc23)nnc2sc(-c3cccc(Br)c3)nn12`, for which the TGI with ACHN renal is > 100 µM; in the assay on SK-OV-3 ovarian it was > 100 µM; in the assay on 786-0 renal, > 100 µM; in the assay with KM12 colon, 63.6 µM; with SF-539 CNS, > 100 µM; in the assay with UACC-257 melanoma it was > 100 µM. In addition, the TGI in the assay with EKVX NSCLC is 98.1 µM; in the assay with SK-MEL-28 melanoma, > 100 µM; in the assay with MCF7 breast it was 84.4 µM; with HCT-15 colon it was 64.7 µM.
For `COC(=O)/C=C(\C)CC(O)/C=C(\C)CCC=C(C)C` (stereo not given), the TGI in the assay with ACHN renal, in the assay with SK-OV-3 ovarian, with 786-0 renal, in the assay on KM12 colon, with SF-539 CNS and with UACC-257 melanoma was > 100 µM each time. In addition, the TGI with EKVX NSCLC, with SK-MEL-28 melanoma, in the assay on MCF7 breast and in the assay on HCT-15 colon was > 100 µM in each case.
As for `CC(=O)Oc1ccc2c(C)cc(=O)oc2c1OC(C)=O`, the TGI in the assay on ACHN renal, in the assay with SK-OV-3 ovarian, with 786-0 renal, in the assay with KM12 colon, in the assay on SF-539 CNS and in the assay with UACC-257 melanoma was > 100 µM each time. The TGI in the assay on EKVX NSCLC is > 100 µM; with SK-MEL-28 melanoma it was > 100 µM; with MCF7 breast, > 100 µM; with HCT-15 colon, 81.6 µM.
On to `COC(=O)C1=C(O)C(C(=O)OC)[C@]2(O)[C@H](C(=O)OC)[C@H]1C[C@@H](c1ccc(C(F)(F)F)cc1)[C@H]2C(=O)OC` (stereo not given in full), for which the TGI in the assay on ACHN renal was > 100 µM; in the assay with SK-OV-3 ovarian, > 100 µM; in the assay with 786-0 renal, 23.4 µM; with KM12 colon, 53.3 µM; in the assay with SF-539 CNS, 4 µM; with UACC-257 melanoma, 23.5 µM. In addition, the TGI in the assay with EKVX NSCLC was 32.4 µM; in the assay on SK-MEL-28 melanoma it was 35.4 µM; in the assay with MCF7 breast, > 100 µM; in the assay with HCT-15 colon, > 100 µM.
Regarding `COc1ccc(S(=O)(=O)c2nnc(S(=O)(=O)Cc3ccccc3)s2)cc1`, the TGI was 30.6 µM with ACHN renal; 44.6 µM with SK-OV-3 ovarian; 62.1 µM with 786-0 renal; > 100 µM with KM12 colon; 50.1 µM in the assay on SF-539 CNS; 31.4 µM in the assay with UACC-257 melanoma. Further, the TGI in the assay with EKVX NSCLC was found to be 57.2 µM; in the assay on SK-MEL-28 melanoma it was 40.3 µM; with MCF7 breast, 60.6 µM; in the assay with HCT-15 colon it was 50.5 µM.
For `CCOC1OC(=O)c2cc3ccc4c(c3c(-c3ccc5c(c3)OCO5)c21)OCO4` (stereo not given), the TGI in the assay with ACHN renal was > 100 µM; in the assay with SK-OV-3 ovarian, > 29.9 µM; in the assay with 786-0 renal it was > 100 µM; in the assay with KM12 colon it was > 100 µM; with SF-539 CNS, 20.4 µM; in the assay with UACC-257 melanoma, > 84.5 µM. In addition, the TGI in the assay on EKVX NSCLC, in the assay on SK-MEL-28 melanoma, in the assay on MCF7 breast and in the assay with HCT-15 colon was > 100 µM each time.
As to `N#Cc1c(N)nc2n[nH]c(N)c2c1-c1ccc(Cl)cc1`, the TGI in the assay with ACHN renal was 9.69 µM; in the assay with SK-OV-3 ovarian, 7.33 µM; in the assay with 786-0 renal, > 60.8 µM; with KM12 colon, > 100 µM; with SF-539 CNS it was 45 µM; in the assay on UACC-257 melanoma, > 100 µM. Also, the TGI in the assay on EKVX NSCLC is 44 µM; with SK-MEL-28 melanoma it was > 100 µM; with MCF7 breast, 19 µM; in the assay on HCT-15 colon, > 72.6 µM.
